From patent US12569467B2, “Small molecules that treat or prevent viral infections” (priority 2022, dated 2026)

Tested on: SARS-CoV-2 Spike protein pseudotyped lentiviral particles
Test: microbe, parasite or virus in culture
Assay type: cell-based
Settings: Severe acute respiratory syndrome coronavirus 2, HEK293, read-out: half-maximal effective concentration (EC50), neutralization of SARS-CoV2 infection

O=C1Nc2ccccc2/C1=C\c1ccc(-c2cc(C(F)(F)F)cc(C(F)(F)F)c2)o1 [CD04872SC, 3-({5-[3,5-di(trifluoromethyl)phenyl]-2-furyl}methylidene)indolin-2-one]
EC50: 248 µM
